Assay results as given in PubChem BioAssay AID1863 (Southern Research Specialized Biocontainment Screening …, 2009).
pIC50: −log10 of the molar value.

System: S. Typhimurium PhoP-regulated promoter GFP reporter, 4 h
Assay: PhoP-dependent GFP reporter repression – Salmonella Typhimurium, primary screen (AID 1863)

In order of falling pIC50:
1. C=C1c2c(Cl)ccc(O)c2C(O)=C2C(=O)[C@]3(O)C(O)=C(C(N)=O)C(=O)[C@@H](N(C)C)[C@@H]3[C@@H](O)C12 (stereo not given in full)  5.65
2. CCOC(=O)N1CCN(C(=O)c2cn(CC)c3cc(N4CCN(C)CC4)c(F)cc3c2=O)CC1  5.31
3. CN(C)c1ccc(O)c2c1CC1CC3[C@@H](N(C)C)C(=O)C(C(N)=O)=C(O)[C@]3(O)C(=O)C1=C2O (stereo not given in full)  5.02
4. CS(=O)(=O)c1ccc([C@@H](O)[C@@H](CF)NC(=O)C(Cl)Cl)cc1  5.01
5. O=Cc1ccc(O)c2ncccc12  4.99
6. CN1/C(=C\C=C\C2=[N+](C)c3ccc4ccccc4c3C2(C)C)C(C)(C)c2ccccc21  4.99
7. C/C(=C\C(=O)OCCCCCCCCC(=O)O)C[C@@H]1OC[C@H](C[C@@H]2O[C@H]2[C@@H](C)[C@H](C)O)[C@@H](O)[C@H]1O  4.98
8. CCn1cc(C(=O)O)c(=O)c2cc(F)c(N3CCN(C(=S)Nc4ccccc4OC)CC3)cc21  4.96
9. CCn1cc(C(=O)O)c(=O)c2cc(F)c(N3CCN(C(=S)NC(=O)c4ccc(OC)cc4)CC3)cc21  4.95
10. COc1cc(C)c(Cc2cnc(N)nc2N)cc1OC  4.93
11. O=C1C(=O)c2ccccc2-c2ccccc21  4.93
12. CCCCCC(CC(=O)NO)C(=O)NC(C(=O)N1CCCC1CO)C(C)C (stereo not given)  4.90
13. CCn1cc(C(=O)O)c(=O)c2cc(F)c(N3CCN(C(=S)NC(=O)c4cccc(C)c4)CC3)cc21  4.83
14. O=[N+]([O-])c1ccc(O)c(/C=N/Nc2ccccn2)c1  4.77
15. COC(=O)C1C(O)C(C)C(O)C(C)(O)/C=C\C=C(/C)C(=O)Nc2c(C)c(OC(C)=O)c3c(c2O)C(=O)C(C)=C2OCOC(=C23)/C(C)=C/C(C)(O)C(O)C(C)C1O (stereo not given)  4.76
16. CCCCCCCCCCOC(=O)Cn1c(COc2ccc(C)cc2)[n+](C)c2ccccc21  4.73
17. Cc1nc(N)nc(N)c1/C=C/C(C)(C)c1ccc(Cl)cc1  4.73
18. CCCCCCCCCCOC(=O)Cn1c(COc2cccc(C)c2)[n+](C)c2ccccc21  4.73
19. Cc1ccc(C(=O)Sc2cccccc2=O)cc1  4.67
20. CC[n+]1c(/C=C/N(C)c2ccccc2)n(-c2ccccc2)c2ccc(-c3nc4ccccc4s3)cc21  4.58
21. Oc1c(Cl)cc(Cl)c2cccnc12  4.55
22. CCn1cc(C(=O)O)c(=O)c2cc(F)c(N3CCN(C(=S)NC(=O)c4c(OC)cccc4OC)CC3)cc21  4.52
23. CCCCCCCCCCCCCCCC[N+](C)(C)CCN(Cc1ccc(OC)cc1)c1ncccn1  4.52
24. N=C(N)SCc1cn(-c2ccccc2)nc1-c1ccc(Br)cc1  4.52
25. Nc1c(Cl)ncnc1N/N=C/c1ccccn1  4.51
26. CCCCCCCCCCCCCCCC[n+]1ccc(/C=N/O)cc1  4.48
27. NC(N)=N/N=C/c1ccc(OCc2ccc(Cl)cc2)cc1  4.40
28. CCn1cc(C(=O)O)c(=O)c2cc3c(cc21)OCO3  4.37
29. CCn1cc(C(=O)O)c(=O)c2cc(F)c(N3CCN(C(=S)NC(=O)c4ccc(F)cc4)CC3)cc21  4.33
30. CCCCCCCCCCOC(=O)C[N+](C)(C)C/C=C(/C)Cl  4.29
31. CN1CCc2c(sc(NC(=O)c3ccc([N+](=O)[O-])o3)c2C(N)=O)C1  4.28
32. Cc1ccc(S(=O)(=O)/N=C2/C=C(Sc3ncn[nH]3)C(=O)c3ccccc32)cc1  4.27
33. COC(=O)c1c(NC(=O)c2ccc([N+](=O)[O-])o2)sc2c1CCN(C(C)C)C2  4.25
34. O=C(CSc1ccccn1)N/N=C/c1cc([N+](=O)[O-])ccc1O  4.24
35. O=C(N/N=C/c1cc(O)ccc1Br)c1cccnc1  4.21
36. NCC12CC3CC(C1)CC(c1ccc(Br)cc1)(C3)C2  4.21
37. CCCCCCCCn1c2c(c(=N)c3c1CCC3)CCCC2  4.17
38. C#CCOCCOCCOCCNc1nc(N2CCN(C(=O)CCCCCCCCCCNC(=O)[C@H]([C@@H](C)CC)n3cc(CCCCN=C(N)N)nn3)CC2)nc(N2CCN(C(=O)CCCCCCCCCCNC(=O)[C@H](CCCN=C(N)N)n3cc(C[C@@H](C)CC)nn3)CC2)n1  4.12
39. CCCCCc1ccc(OCCC[n+]2ccccc2)c(CCCCC)c1  4.08
40. Fc1ccc(CCNCc2ccc(Cl)c(Cl)c2)cc1  4.07
41. CC(C)Oc1ccc(Cc2cnc(N)nc2N)cc1  4.04
42. CCCCCNCC(=O)Nc1cccc(C(=O)Nc2cccc(C(F)(F)F)c2)c1  4.02
43. Oc1c(Br)cc(Br)cc1C=NCc1ccccc1  3.99
44. Cc1onc(-c2ccccc2)c1C(=O)NC(=S)NNC(=O)c1ccc(O)cc1O  3.96
45. Cc1scc(C(=O)N/N=C/c2ccc([N+](=O)[O-])o2)c1C  3.96
46. Cc1cc(C(=O)N/N=C/c2cc(Br)cc([N+](=O)[O-])c2O)c2ccccc2n1  3.93
47. Clc1ccc(Cl)c(OCCCCNCc2ccccc2)c1  3.91
48. CSCC[C@H](NC(=O)Nc1ccc(C)cc1)C(=O)O  3.91
49. c1ccc2c(c1)Sc1ccccc1N2CC1CN2CCC1CC2 (stereo not given)  3.87
50. C=CCNc1ncnc2c1[nH]c1ccc(Cl)cc12  3.86
